Test system: NuRD complex
Assay: Expression-based proteomics (TMT-exp) of compound-treated T cells, NuRD complex
Type: cell-based, human
Details: BPK-25 10 μM, 24 h; for decrease in GATAD2B, MBD2, MBD3, and MTA2 (NuRD complex proteins): BPK-21 20 μM, EV-3 10 μM, DMF 50 μM
Experimental: FIG. 7B is a scatter plot representation of protein abundance changes caused by BPK-25 (10 μM, 24 h) in two independent replicate experiments, with decreases in NuRD complex components highlighted in red. FIG. 7C is a heatmap of top proteins with decreased abundance in BPK-25-treated T cells showing that the subset of these proteins in the NuRD complex (asterisks) were largely unaltered by other active compounds and blocked in their degradation by co-treatment with the proteasome inhibitor MG132. […] FIG. 7E is a bar graph […] showing time-dependent reductions in NuRD complex members in human T cells treated with BPK-25 (10 μM). Left, representative western blots. Right, quantification of changes in protein. […] FIG. 7G is a heat map showing the changes in cysteine reactivity for NuRD complex members in human T cells treated with BPK-25 and other active compounds.
Freshly isolated T cells (1.6×10^7 cells, 2×10^6 cells/mL in RPMI media) were treated with compound or DMSO for 24 h, pelleted (600 g, 5 min), and washed with PBS (1×10 mL). The cells were then transferred to an Eppendorf tube in additional PBS (1 mL), pelleted (600 g, 5 min), flash frozen, and kept at −80° C. until further analysis. On the first day of the whole proteome TMT protocol, the cells were thawed on ice and lysed in lysis buffer (150 μL, 1 tablet of Roche complete, mini, EDTA-free Protease Inhibitor Cocktail dissolved in 10 mL of PBS) using a probe sonicator (2×8 pulses). Protein concentration was adjusted to 2.0 mg/mL and the samples (100 μL) were transferred to new Eppendorf tubes (1.5 mL) containing urea (48 mg/tube, final urea concentration: 8 M). DTT (5 μL, 200 mM fresh stock in H2O, final DTT concentration: 10 mM) was then added to the tubes and the samples were incubated at 65° C. for 15 min. Following this incubation, iodoacetamide (5 μL, 400 mM fresh stock in H2O, final IA concentration: 20 mM) was added and the samples were incubated in the dark at 37° C. with shaking for 30 min. Ice-cold MeOH (600 μL), CHCl3 (200 μL), and H2O (500 μL) were then added, the mixture was vortexed and centrifuged (10,000 g, 10 min, 4° C.) to afford a protein disc at the interface of CHCl3 and aqueous layers. The top layer was aspirated without perturbing the disk, additional MeOH (600 μL) was added and the proteins were pelleted (10,000 g, 10 min, 4° C.) and used in the next step or stored at −80° C. overnight.
The resulting protein pellets were resuspended in EPPS buffer (160 μL, 200 mM, pH 8) using a probe sonicator (2×6 pulses). […]
The sample became clear after the overnight digestion. At this point, peptide concentration was determined using microBCA assay (Thermo Scientific) according to manufacturer's instructions. […]

C=CC(=O)N(Cc1cccc(Cl)n1)c1ccc(C(=O)Nc2ccccc2)nc1 [BPK-25]
reduced abundance of additional NuRD complex members: 25-50% | decrease in GATAD2B, MBD2, MBD3, and MTA2 (NuRD complex proteins): > 50%

COC(=O)/C=C/C(=O)OC [DMF, reference compound]
decrease in GATAD2B, MBD2, MBD3, and MTA2 (NuRD complex proteins): not leading to NuRD complex degradation
